Experimental data from patent publication US20120135995A1, “FUNGICIDAL DIPHENYL-SUBSTITUTED PYRIDAZINES” (E.I. Dupont de Nemours and Company, priority 2009, published 2012).

Tests used:
[1] = tested on: Puccinia recondita f. sp. tritici; assay: Test E2: wheat seedlings sprayed, next day inoculated with Puccinia recondita f. sp. tritici (wheat leaf rust), visual disease rating; type: in vivo; conditions: 200 ppm test suspension, sprayed day before inoculation
From the text: (§1) General protocol for preparing test suspensions for Tests A-F: the test compounds were first dissolved in acetone in an amount equal to 3% of the final volume and then suspended at the desired concentration (in ppm) in acetone and purified water (50/50 mix) containing 250 ppm of the surfactant Trem® 014 (polyhydric alcohol esters). The resulting test suspensions were then used in Tests A-F. Spraying a 200 ppm test suspension to the point of run-off on the test plants was the equivalent of a rate of 500 g/ha. An asterisk “*” next to the rating value indicates a 40 ppm test suspension.
The test suspension was sprayed to the point of run-off on wheat seedlings. The following day the seedlings were inoculated with a spore suspension of Puccinia recondita f. sp. tritici (the causal agent of wheat leaf rust) and incubated in a saturated atmosphere at 20° C. for 24 h, and then moved to a growth chamber at 20° C. for 7 days, after which time visual disease ratings were made.
(§2) Results for Tests A-F are given in Table A. In the Table, a rating of 100 indicates 100% disease control and a rating of 0 indicates no disease control (relative to the controls). A dash (-) indicates no test results. All results are for 200 ppm except where followed by “*”, which indicates 40 ppm.

[2] = tested on: Septoria tritici; assay: Test D: wheat seedlings sprayed, next day inoculated with Septoria tritici (wheat leaf blotch), visual disease rating; type: in vivo; conditions: 200 ppm test suspension, sprayed day before inoculation
From the text: as §1
(§3) The test suspension was sprayed to the point of run-off on wheat seedlings. The following day the seedlings were inoculated with a spore suspension of Septoria tritici (the causal agent of wheat leaf blotch) and incubated in saturated atmosphere at 24° C. for 48 h, and then moved to a growth chamber at 20° C. for 19 days, after which time visual disease ratings were made.
as §2

[3] = tested on: Puccinia recondita f. sp. tritici; assay: Test E1: wheat seedlings inoculated with Puccinia recondita f. sp. tritici (wheat leaf rust), sprayed afterwards, visual disease rating; type: in vivo; conditions: 200 ppm test suspension, sprayed after inoculation
From the text: as §1
Wheat seedlings were inoculated with a spore suspension of Puccinia recondita f. sp. tritici (the causal agent of wheat leaf rust) and incubated in a saturated atmosphere at 20° C. for 24 h, and then moved to a growth chamber at 20° C. for 2 days. At the end of this time the test suspension was sprayed to the point of run-off on the wheat seedlings, and then the seedlings were moved to a growth chamber at 20° C. for 6 days, after which time visual disease ratings were made.
as §2

[4] = tested on: Botrytis cinerea; assay: Test A: tomato seedlings sprayed, next day inoculated with Botrytis cinerea (tomato Botrytis), visual disease rating; type: in vivo; conditions: 200 ppm test suspension, sprayed day before inoculation
From the text: as §1
as §3, with “tomato” for “wheat”, “Botrytis cinerea” for “Septoria tritici”, “tomato Botrytis)” for “wheat leaf blotch)”, “20°” for “24°”, “24°” for “20°”, “3” for “19”
as §2

[5] = tested on: Alternaria solani; assay: Test B: tomato seedlings sprayed, next day inoculated with Alternaria solani (tomato early blight), visual disease rating; type: in vivo; conditions: 200 ppm test suspension, sprayed day before inoculation
From the text: as §1
The test suspension was sprayed to the point of run-off on tomato seedlings. The following day the seedlings were inoculated with a spore suspension of Alternaria solani (the causal agent of tomato early blight) and incubated in a saturated atmosphere at 27° C. for 48 h, and then moved to a growth chamber at 20° C. for 5 days, after which time visual disease ratings were made.
as §2

[6] = tested on: Septoria nodorum; assay: Test C: wheat seedlings sprayed, next day inoculated with Septoria nodorum (wheat glume blotch), visual disease rating; type: in vivo; conditions: 200 ppm test suspension, sprayed day before inoculation
From the text: as §1
The test suspension was sprayed to the point of run-off on wheat seedlings. The following day the seedlings were inoculated with a spore suspension of Septoria nodorum (the causal agent of wheat glume blotch) and incubated in a saturated atmosphere at 24° C. for 48 h, and then moved to a growth chamber at 20° C. for 6 days, after which time visual disease ratings were made.
as §2

[7] = tested on: Erysiphe graminis; assay: Test F: wheat seedlings sprayed, next day inoculated with Erysiphe graminis (wheat powdery mildew), visual disease rating; type: in vivo; conditions: 200 ppm test suspension, sprayed day before inoculation
From the text: as §1
The test suspension was sprayed to the point of run-off on wheat seedlings. The following day the seedlings were inoculated with a spore dust of Erysiphe graminis, (the causal agent of wheat powdery mildew) and incubated in a growth chamber at 20° C. for 8 days, after which time visual disease ratings were made.
as §2

For `COc1cc(OC)cc(-c2c(C)nnc(F)c2-c2c(F)cccc2F)c1` [Compound 33, 4-(2,6-difluorophenyl)-3-fluoro-5-(3,5-dimethoxyphenyl)-6-methylpyridazine], the pest or weed control at 200 ppm ([1]; Puccinia recondita) was 100%, the pest or weed control at 200 ppm ([2]; Zymoseptoria tritici) was 100% and the pest or weed control at 200 ppm ([3]; Puccinia recondita) was 60%. The melting point was 150 to 151 °C, the pest or weed control at 200 ppm ([4]; Botrytis cinerea) was 99% and the pest or weed control at 200 ppm ([5]; Alternaria solani) was 100%. It also gave a pest or weed control at 200 ppm ([6]; Parastagonospora nodorum) of 99% and a pest or weed control at 200 ppm ([7]; Blumeria graminis) of 99%.
For `COc1cc(OC)cc(-c2c(C)nnc(Cl)c2-c2c(F)cccc2Cl)c1` [Compound 38], the “Test E2 rating (disease control)” value [1] was 100%, the “Test D rating (disease control)” value [2] was 100% and the “Test E1 rating (disease control)” value [3] was 85%. For the same compound, the “Test A rating (disease control)” value [4] was 100%, the “Test B rating (disease control)” value [5] was 99% and the “Test C rating (disease control)” value [6] was 99%. The “Test F rating (disease control)” value [7] was 100%.
With `COc1cc(OC)cc(-c2c(C)nnc(C)c2-c2c(F)cccc2Cl)c1` [Compound 39] the “Test E2 rating (disease control)” value [1] was 100%, the “Test D rating (disease control)” value [2] was 100% and the “Test E1 rating (disease control)” value [3] was 99%. The “Test A rating (disease control)” value [4] was 100%, the “Test B rating (disease control)” value [5] was 99% and the “Test C rating (disease control)” value [6] was 99%. The “Test F rating (disease control)” value [7] was 98%.
In the case of `COc1cc(OC)cc(-c2c(C)nnc(C)c2-c2ccc(F)cc2F)c1` [Compound 40], the “Test E2 rating (disease control)” value [1] is reported as 100%, the “Test D rating (disease control)” value [2] is reported as 100% and the “Test E1 rating (disease control)” value [3] is reported as 0%. For the same compound, the “Test A rating (disease control)” value [4] was 100%, the “Test B rating (disease control)” value [5] was 99% and the “Test C rating (disease control)” value [6] was 97%. For the same compound, the “Test F rating (disease control)” value [7] was 95%.
In the case of `COc1cc(OC)c(Cl)c(-c2c(C)nnc(Cl)c2-c2c(F)cccc2Cl)c1` [Compound 41], the “Test E2 rating (disease control)” value [1] is reported as 100%, the “Test D rating (disease control)” value [2] is reported as 100% and the “Test E1 rating (disease control)” value [3] is reported as 86%. The “Test A rating (disease control)” value [4] was 99%, the “Test B rating (disease control)” value [5] was 99% and the “Test C rating (disease control)” value [6] was 0%. For the same compound, the “Test F rating (disease control)” value [7] was 100%.
With `COc1cc(OC)c(Cl)c(-c2c(C)nnc(Cl)c2-c2c(F)cccc2Cl)c1Cl` [Compound 42] the “Test E2 rating (disease control)” value [1] was 89%, the “Test D rating (disease control)” value [2] was 60% and the “Test E1 rating (disease control)” value [3] was 0%. For the same compound, the “Test A rating (disease control)” value [4] was 0%, the “Test B rating (disease control)” value [5] was 0% and the “Test C rating (disease control)” value [6] was 0%. For the same compound, the “Test F rating (disease control)” value [7] was 42%.
For `COc1cc(OC)c(Cl)c(-c2c(C)nnc(C)c2-c2c(F)cccc2Cl)c1` [Compound 43], the “Test E2 rating (disease control)” value [1] was 100%, the “Test D rating (disease control)” value [2] was 100% and the “Test E1 rating (disease control)” value [3] was 0%. The “Test A rating (disease control)” value [4] was 62%, the “Test B rating (disease control)” value [5] was 82% and the “Test C rating (disease control)” value [6] was 99%. For the same compound, the “Test F rating (disease control)” value [7] was 100%.
With `COc1cc(OC)c(Cl)c(-c2c(C)nnc(Cl)c2-c2ccc(F)cc2F)c1` [Compound 44] the “Test E2 rating (disease control)” value [1] was 100%, the “Test D rating (disease control)” value [2] was 100% and the “Test E1 rating (disease control)” value [3] was 96%. The “Test A rating (disease control)” value [4] was 66%, the “Test B rating (disease control)” value [5] was 99% and the “Test C rating (disease control)” value [6] was 64%. The “Test F rating (disease control)” value [7] was 100%.
With `COc1cc(-c2c(C)nnc(Cl)c2-c2ccc(F)cc2F)cc(OC)c1Cl` [Compound 45] the “Test E2 rating (disease control)” value [1] was 100%, the “Test D rating (disease control)” value [2] was 100% and the “Test E1 rating (disease control)” value [3] was 100%. For the same compound, the “Test A rating (disease control)” value [4] was 100%, the “Test B rating (disease control)” value [5] was 100% and the “Test C rating (disease control)” value [6] was 97%. The “Test F rating (disease control)” value [7] was 100%.
In the case of `COc1cc(OC)cc(-c2c(C)nnc(F)c2-c2ccc(F)cc2F)c1` [Compound 46], the “Test E2 rating (disease control)” value [1] is reported as 98%, the “Test D rating (disease control)” value [2] is reported as 100% and the “Test E1 rating (disease control)” value [3] is reported as 0%. The “Test A rating (disease control)” value [4] was 99%, the “Test B rating (disease control)” value [5] was 100% and the “Test C rating (disease control)” value [6] was 84%. For the same compound, the “Test F rating (disease control)” value [7] was 98%.
